Ki data for 28 compounds are collected here from patent US5922719A, “Coumarin dopamine D4 receptor antagonists” (priority 1997, dated 1999).

SMILES strings stand for the structures. pKi: −log10 of the molar value. Counter-ions that a name gives are not always drawn. Like-named read-outs stand apart in the source and are kept apart here.

For assay [1], the target named is T1, human recombinant dopamine D4.2 receptor (Homo sapiens, UniProt P21917, DEL265-296).
T1 construct: expressed in transfected cells
T1 sequence (P21917 with tags, fused parts or gaps DEL265-296): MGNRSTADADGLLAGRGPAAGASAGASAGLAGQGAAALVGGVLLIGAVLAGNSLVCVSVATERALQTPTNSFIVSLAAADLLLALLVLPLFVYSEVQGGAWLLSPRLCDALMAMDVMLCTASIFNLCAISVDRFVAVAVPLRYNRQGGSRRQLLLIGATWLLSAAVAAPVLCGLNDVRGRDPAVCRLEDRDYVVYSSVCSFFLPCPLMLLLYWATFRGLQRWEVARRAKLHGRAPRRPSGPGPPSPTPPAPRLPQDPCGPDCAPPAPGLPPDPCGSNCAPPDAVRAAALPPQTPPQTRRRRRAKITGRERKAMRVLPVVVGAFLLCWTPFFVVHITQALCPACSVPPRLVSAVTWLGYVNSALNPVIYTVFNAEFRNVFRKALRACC
Nature of the assay: [3H]spiperone receptor binding assay, D4.2 (CHO K1 membranes). The note with it: [3H]spiperone 0.2 nM, human D4.2, CHO K1 membranes, 60 minutes at 25° C. From the text: (§1) A cell line expressing human dopamine D2 (Long form) receptors was purchased from Oregon Health Sciences University, Portland, Ore. The D2 receptor cDNA was subcloned into an expression vector, pRc/CMV. The plasmids were transfected by electroporation into CHO K1 cells. A single stable transfectant, resistant to the antibiotic G418, was isolated and selected for use in the binding studies. For D4 binding, CHO K1 cells stably transfected to express the human recombinant dopamine D4.2 receptor subtype, as described by Shih, et al., "The expression and functional characterization of human dopamine D4.2 receptor in CHO K1 cells," Soc.
(§2) Cells were grown until confluent, after which growth medium was removed and replaced with 0.02% ethylene diamine tetracetate (EDTA) in a phosphate-buffered saline solution (Sigma Chemical Co; St. Louis, Mo.) and scraped from the flasks. The cells were centrifuged at about 1000×g for 10 minutes at 40° C. and then resuspended in TEM buffer (25 mM Tris-HCL, pH 7.4, 5 mM EDTA, and 6 mM MgCl2) for D2 or the D4.2 buffer (50 mM Tris-HCl, pH 7.4, 5 mM EDTA, 1.5 mM CaCl2, 5 mM KCl, and 120 mM NaCl) and homogenized. The membranes were pelleted by centrifugation at 20,000×g at 40° C. for 20 minutes. Then the pellets were resuspended in an appropriate buffer at 1 mL/flask and stored at -70° C. until used in the receptor binding assay.
After 60 minutes incubation at 25° C., the incubations were terminated by rapid filtration through Whatmann GF/B glass fibre filters (soaked for 1 hour in 0.5% polyethylenimine) on a -cell harvester, with three washes of 1 mL ice-cold buffer. […] Nonspecific binding was defined in presence of 1 mM of haloperidol.
(§3) Saturation and competition binding data were analyzed using an iterative nonlinear least-square curve-fitting Ligand program. […] Experimental compounds were made up as stock solutions in dimethyl sulfoxide (DMSO). […] Each observation was carried out in triplicate. To allow these calculations, Kd values were measured for the interaction of various ligands with the receptor. […]

Assay [2] concerns the target human dopamine D2 (Long form) receptor (Homo sapiens, UniProt P14416). As to the kind of experiment: [3H]spiperone receptor binding assay, D2 (Long form) (CHO K1 membranes). To be noted: [3H]spiperone 0.2 nM, human D2 (Long form), CHO K1 membranes, 60 minutes at 25° C.; read-out: D2 Ki.
Text: as §1, with “Soc. Neurosci., 1995;21(Part 1):621.” for “Soc.”
as §2, with “CHO K1 cells expressing either human D2 and D4.2 receptors were grown in 162 cm^2 culture flasks in F12 medium (Gibco Laboratories, Grand Island, N.Y.) supplemented with 10% fetal bovine serum (FBS, Hyclone, Logan, UT) in an atmosphere of 5% Co2 /95% air at 37° C. Cells” for “Cells”
After 60 minutes incubation at 25° C., the incubations were terminated by rapid filtration through Whatmann GF/B glass fibre filters (soaked for 1 hour in 0.5% polyethylenimine) on a -cell harvester, with three washes of 1 mL ice-cold buffer. Individual filter disks containing the bound ligand were placed in counting vials with 4 mL of scintillation fluid (Ready Gel, Beckman Instrument Inc, Fullerton, Calif.) and then counted in a Beckman LS-6800 liquid scintillation counter at an efficiency of 45%. Nonspecific binding was defined in presence of 1 mM of haloperidol.
as §3

human dopamine D2 (Long form) receptor, sequence (P14416 whole entry): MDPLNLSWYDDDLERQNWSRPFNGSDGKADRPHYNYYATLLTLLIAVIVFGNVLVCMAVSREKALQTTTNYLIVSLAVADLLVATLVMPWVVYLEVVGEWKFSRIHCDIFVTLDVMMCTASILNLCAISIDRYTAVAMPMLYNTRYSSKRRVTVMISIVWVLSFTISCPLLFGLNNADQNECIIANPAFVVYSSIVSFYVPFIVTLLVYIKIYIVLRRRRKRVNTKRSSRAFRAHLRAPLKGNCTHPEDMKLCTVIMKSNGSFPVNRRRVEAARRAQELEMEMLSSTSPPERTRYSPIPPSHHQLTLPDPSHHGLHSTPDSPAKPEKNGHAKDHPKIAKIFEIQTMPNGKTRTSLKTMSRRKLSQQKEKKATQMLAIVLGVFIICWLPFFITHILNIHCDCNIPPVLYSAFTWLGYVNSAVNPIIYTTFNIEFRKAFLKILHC

As for `O=c1ccc2ccc(CN3CCN(c4ccccc4Cl)CC3)cc2o1` [Example 5, 7-[4-(2-Chloro-phenyl)-piperazin-1-ylmethyl]-chromen-2-one], the pKi is 7.77 in assay [1] (read-out: D4 Ki) and 6.20 in assay [2].

In the case of `Cc1cccc(N2CCN(Cc3ccc4oc(=O)ccc4c3)CC2)c1` [Example 49, 6-(4-m-Tolyl-piperazin-1-ylmethyl)-chromen-2-one], the pKi in assay [1] (D4 Ki) is 7.13. `COc1ccc(N2CCN(Cc3ccc4ccc(=O)oc4c3)CC2)cc1` [Example 26, 7-[4-(4-Methoxy-phenyl)-piperazin-1-ylmethyl]-chromen-2-one]: the pKi in assay [1] (D4 Ki) is 7.12. With `O=c1ccc2ccc(CN3CCN(c4cccc(C(F)(F)F)c4)CC3)cc2o1` [Example 10, 7-[4-(3-Trifluoromethyl-phenyl)-piperazin-1-ylmethyl]-chromen-2-one], the negative logarithm of the Ki (pKi) is 7.62 in assay [1] (read-out: D4 Ki) and 5.23 in assay [2]. On to `CCCSc1cccc(N2CCN(Cc3ccc4ccc(=O)oc4c3)CC2)c1` [Example 27, 7-[4-(3-Propylsulfanyl-phenyl)-piperazin-1-ylmethyl]-chromen-2-one], for which the pKi in assay [1] (read-out: D4 Ki) was 7.04. Consider `Cc1cccc(N2CCN(Cc3ccc4ccc(=O)oc4c3)CC2)c1Cl` [Example 20, 7-[4-(2-Chloro-3-methyl-phenyl)-piperazin-1-ylmethyl]-chromen-2-one], for which the values for the pKi in assay [1] (read-out: D4 Ki) and in assay [2] were 7.40 and 5.23, respectively. The like results for `O=c1ccc2cc(CN3CCN(c4ccc(CO)c(Cl)c4)CC3)ccc2o1` [Example 38, 6-[4-(3-Chloro-4-hydroxymethyl-phenyl)-piperazin-1-ylmethyl]-chromen-2-one] were, in that order, 7.89 and 5.14. The like results for `O=c1ccc2ccc(CN3CCN(c4ccccc4F)CC3)cc2o1` [Example 18, 7-[4-(2-Fluoro-phenyl)-piperazin-1-ylmethyl]-chromen-2-one] were, in that order, 7.48 and 6.00. The like results for `O=c1ccc2cc(CN3CCN(c4ccc(CO)c(Br)c4)CC3)ccc2o1` [Example 37, 6-[4-(3-Bromo-4-hydroxymethyl-phenyl)-piperazin-1-ylmethyl]-chromen-2-one] were, in that order, 7.90 and 5.53. For the compound `O=c1ccc2ccc(CN3CCC(c4ccccc4)CC3)cc2o1` [Example 7, 7-(4-Phenyl-piperidin-1-ylmethyl)-chromen-2-one], in assay [1] (D4 Ki), the pKi is 7.74.

With `O=c1ccc2ccc(CN3CCN(Cc4ccccc4)CC3)cc2o1` [Example 30, 7-(4-Benzyl-piperazin-1-ylmethyl)-chromen-2-one], the pKi in assay [1] (D4 Ki) is 5.57. For `O=c1ccc2cc(CN3CCN(c4ccccn4)CC3)ccc2o1` [Example 44, 2H-1-Benzopyran-2-one, 6-[[4-(2-pyridinyl)-1-piperazinyl]methyl]-, dihydrochloride], the values for the pKi in assay [1] (read-out: D4 Ki) and in assay [2] were 7.53 and 5.66, respectively. With `O=c1ccc2ccc(CN3CCN(c4ccc(Cl)cc4)CC3)cc2o1` [Example 28, 7-[4-(4-Chloro-phenyl)-piperazin-1-ylmethyl]-chromen-2-one], in assay [1] (read-out: D4 Ki), the pKi is 7.03. Still for that read-out and setting: the same measure for `COc1cc(N2CCN(Cc3ccc4ccc(=O)oc4c3)CC2)cc(OC)c1OC` [Example 31, 7-[4-(3,4,5-Trimethoxy-phenyl)-piperazin-1-ylmethyl]-chromen-2-one]: below 5.70. In the case of `O=Cc1ccc(N2CCN(Cc3ccc4ccc(=O)oc4c3)CC2)cc1Cl` [Example 11, 2-Chloro-4-[4-(2-oxo-2H-chromen-7-ylmethyl)-piperazin-1-yl]-benzaldehyde], the pKi is 7.61 in assay [1] (read-out: D4 Ki) and below 5.23 in assay [2]. Turning to `COc1cc(N2CCN(Cc3ccc4oc(=O)ccc4c3)CC2)cc(OC)c1OC` [Example 51, 6-[4-(3,4,5-Trimethoxy-phenyl)-piperazin-1-ylmethyl]-chromen-2-one], the pKi in assay [1] (read-out: D4 Ki) is 6.50. Same read-out and setting: in the case of `O=c1ccc2ccc(CN3CCN(c4ncccn4)CC3)cc2o1` [Example 32, 2H-1-Benzopyran-2-one, 7-[[4-(2-pyrimidinyl)-1-piperazinyl]methyl]-, dihydrochloride] it was 5.30. As for `O=c1ccc2cc(CN3CCN(c4cccc(Cl)c4)CC3)ccc2o1` [Example 41, 6-[4-(3-Chloro-phenyl)-piperazin-1-ylmethyl]-chromen-2-one], the figures for the pKi in assay [1] (read-out: D4 Ki) and in assay [2] were 7.71 and 5.48, respectively. With `O=c1ccc2ccc(CN3CCN(c4ccc(F)cc4)CC3)cc2o1` [Example 24, 7-[4-(4-Fluoro-phenyl)-piperazin-1-ylmethyl]-chromen-2-one], in assay [1] (D4 Ki), the pKi is 7.23. As for `O=c1ccc2ccc(CN3CCN(c4ccc(CO)c(F)c4)CC3)cc2o1` [Example 16, 7-[4-(3-Fluoro-4-hydroxymethyl-phenyl)-piperazin-1-ylmethyl]-chromen-2-one], in assay [1] (read-out: D4 Ki), the pKi was 7.52. Take `O=c1ccc2ccc(CN3CCN(c4cccc([N+](=O)[O-])c4)CC3)cc2o1` [Example 14, 7-[4-(3-Nitro-phenyl)-piperazin-1-ylmethyl]-chromen-2-one]: the pKi in assay [1] (read-out: D4 Ki) was 7.59; in assay [2], 5.23. For the compound `O=c1ccc2cc(CN3CCN(c4ncccn4)CC3)ccc2o1` [Example 50, 2H-1-Benzopyran-2-one, 6-[[4-(2-pyrimidinyl)-1-piperazinyl]methyl]-], the pKi in assay [1] (read-out: D4 Ki) was 6.79. With `Cc1ccc(C2CCN(Cc3ccc4ccc(=O)oc4c3)CC2)cc1` [Example 12, 7-(4-p-Tolyl-piperidin-1-ylmethyl)-chromen-2-one], the pKi in assay [1] (read-out: D4 Ki) was 7.59. Same read-out and setting: the same measure for `O=c1ccc2ccc(CN3CCN(c4ccc(CO)c(Br)c4)CC3)cc2o1` [Example 19, 7-[4-(3-Bromo-4-hydroxymethyl-phenyl)-piperazin-1-ylmethyl]-chromen-2-one]: 7.40. On the same count and under the same terms, the same measure for `Cc1c(Cl)cccc1N1CCN(Cc2ccc3ccc(=O)oc3c2)CC1` [Example 29, 7-[4-(3-Chloro-2-methyl-phenyl)-piperazin-1-ylmethyl]-chromen-2-one]: 6.89. Same read-out and setting: in the case of `O=c1ccc2cc(CN3CCN(c4cccc(Cl)c4Cl)CC3)ccc2o1` [Example 45] it was 7.39. `O=c1ccc2ccc(CN3CCN(c4ccc5ccccc5c4)CC3)cc2o1` [Example 23, 7-(4-Naphthalen-2-yl-piperazin-1-ylmethyl)-chromen-2-one]: the negative-log Ki (pKi) in assay [1] (read-out: D4 Ki) is 7.30.

As to `O=c1ccc2cc(CN3CCN(c4ccc(F)cc4)CC3)ccc2o1` [Example 46, 6-[4-(4-Fluoro-phenyl)-piperazin-1-ylmethyl]-chromen-2-one], the pKi in assay [1] (read-out: D4 Ki) was 7.39.
